≈ marks a conversion by molar mass, not a printed value. Read-outs that look alike come from different tables or passages of the source.
Key:
Vero cells = experiment: MTT cytotoxicity assay; assay type: cell-based, African green monkey; settings: Vero cells, MTT
Experimental: (§1) All the cell lines were cultured at 37°C with 5% CO2. […] ACV-resistant HSV-1 was generated in our previous study.
(§2) The cells were washed with PBS, added with 0.1 mg/mL MTT reagent [3-(4,5-dimethylthiazol-2-yl)-2,5-diphenyl tetrazolium bromide; Sigma] and incubated at 37°C for 5 hours. After incubation, MTT reagent was removed and DMSO was added to each well. The absorbance was then determined by ELISA reader (SpectraMAX 340, Molecular Devices) at the wavelength of 550 nm.

HSV-2 = experiment: Plaque reduction assay; assay type: cell-based; settings: for EC50: read-out: EC50 HSV-2
Experimental: (§3) African green monkey kidney cells (Vero, ATCC CCL-81) and human epithelial carcinoma cells (HEp-2, ATCC CCL-23 and A549, ATCC CCL-185) were maintained in Dulbecco’s modified Eagle’s medium (DMEM), modified Eagle’s medium (MEM) and RPMI-1640 medium, respectively, supplemented with 10% fetal bovine serum (Gibco), 100 units/mL penicillin, and 100 μg/mL streptomycin. All the cell lines were cultured at 37°C with 5% CO2. HSV-1F (ATCC VR-733) and HSV-2G (ATCC VR-734) stocks were propagated in Vero cells, aliquoted and stored at -80°C. ACV-resistant HSV-1 was generated in our previous study.
(§4) 1X 10^6 Vero cells were seeded onto 6-well culture plates for 24 hours and infected with 100 pfu/well virus at 37°C for 1 hour. […] After 3 days, the cells were fixed with 3.7% formaldehyde and stained with crystal violet. The plaques were counted.

HSV-1 [1] = experiment: Plaque reduction assay; assay type: cell-based; settings: for EC50: read-out: EC50 HSV-1
Experimental: as §3, §4

MTT cytotoxicity assay = assay type: cell-based, African green monkey; settings: African green monkey
Experimental: as §1, §2

HSV-1 [2] = experiment: Virus pre-treatment assay (plaque assay); assay type: cell-based; settings: 100 pfu HSV-1 pretreated, Vero cells, Fig. 9A
Experimental: After incubation, HCWEs-pretreated cells were washed with PBS and then infected with 100 pfu HSV. The inhibitory activities were analyzed by plaque assay. […] After 3 hours of incubation, 1X10^6 Vero cells were infected with HCWEs-pretreated virus and then analyzed by plaque assay.

NF-κB = NF-κB translocation analysis by Western blot of nuclear fractions; assay type: cell-based; settings: HSV-1 infection, nuclear fraction at 3 h.p.i.
Description: During HSV infection, there are two waves of NF-κB activation. The first-wave of NF-κB activation could enhance ICP0 transcription via binding onto viral ICP0 promoter while the second-wave of NF-κB activation could prevent host cells from apoptosis. […] The nuclear fractions were extracted and applied to NF-κB translocation analysis by Western blot assay. […] After transfection, luciferase activity of pGL-ICP0 Wt transfected cells increased up to 3,000-fold compared with the vector control, pGL, in HSV-1 infection. […] Although it is well known the expression of ICP0 is regulated by NF-κB, the exact NF-κB binding site on ICP0 promoter is not identified yet. […] Only one NF-κB binding site was predicted within the HSV-1 ICP0 promoter. To determine whether the HCWEs-mediated ICP0 suppression was NF-κB-dependent, the predicted NF-κB binding site within pGL-ICP0 Wt was mutated by PCR-based mutagenesis and the resulting plasmid was named as pGL-ICP0 Mut. […] The results implied that HSV-1 ICP0 promoter activity was at least partly regulated by NF-κB.

HSV-1 [3] = experiment: Virus binding to Vero cells, Western blot of cell-bound virus gD; assay type: cell-based; settings: 1 m.o.i., 4°C
[4] = system: Acyclovir-resistant HSV-1 (HSV-AR); experiment: microbe, parasite or virus in culture; assay type: cell-based; settings: Human alphaherpesvirus 1, Vero, read-out: EC50 HSV-AR
Experimental: as §3, §4

[5] = Vero cells, MTT, read-out: CC50
[6] = Human alphaherpesvirus 2, Vero cells
[7] = Human alphaherpesvirus 1, Vero cells

Compound	CC50 at 3 days (MTT cytotoxicity assay; [5]) [µg/mL]	EC50 (HSV-2; [6]) [µg/mL]	EC50 (HSV-1 [1]; [7]) [µg/mL]	inhibition of HSV-1 by pretreatment of virus with pure compound (HSV-1 [2])	cell binding ability of HSV-1 (Western blot) (HSV-1 [3])	SI HSV-1 (CC50/EC50) (HSV-1 [1])	further results
O=c1c(O[C@@H]2O[C@H](CO)[C@H](O)[C@H](O)[C@H]2O)c(-c2ccc(O)c(O)c2)oc2cc(O)cc(O)c12 [Hyperin, hyperin]							CC50 (Vero cells): >500 µg/mL; EC50 HSV-2 (HSV-2; Vero cells): >500 µg/mL; EC50 HSV-1 (HSV-1 [1]; Vero cells): >500 µg/mL
O=C(/C=C/c1ccc(O)c(O)c1)O[C@@H]1C[C@](O)(C(=O)O)C[C@@H](O)[C@H]1O [Chlorogenic acid, chlorogenic acid]	1240 (≈ 3510 µM)	> 1240	> 1240				
C[C@@H]1O[C@@H](Oc2c(-c3ccc(O)c(O)c3)oc3cc(O)cc(O)c3c2=O)[C@H](O)[C@H](O)[C@H]1O [Quercitrin, quercitrin]	142 (≈ 317 µM)						EC50 (HSV-2; Human alphaherpesvirus 2, Vero): > 142 µg/mL; EC50 (HSV-1 [1]; Human alphaherpesvirus 1, Vero): > 142 µg/mL
O=c1c(O)c(-c2ccc(O)c(O)c2)oc2cc(O)cc(O)c12 [Quercetin, quercetin]	486 (≈ 1610 µM)	70 (≈ 232 µM)	52.9 (≈ 175 µM)	targeted virus particles directly and inhibited viral entry	inhibited the binding of HSV-1 onto host cells	9.18	HSV-induced NF-κB translocation / activation (NF-κB): inhibited NF-κB activation; SI HSV-2 (CC50/EC50) (HSV-2): 6.94
C[C@@H]1O[C@@H](OC[C@H]2O[C@@H](Oc3c(-c4ccc(O)c(O)c4)oc4cc(O)cc(O)c4c3=O)[C@H](O)[C@@H](O)[C@@H]2O)[C@H](O)[C@H](O)[C@H]1O [Rutin, rutin]		169 (≈ 278 µM)	188 (≈ 307 µM)	not	not	3.745	CC50 at 3 days (MTT cytotoxicity assay): 702 µg/mL (≈ 1150 µM); SI HSV-2 (CC50/EC50) (HSV-2): 4.146
Nc1nc2c(ncn2COCCO)c(=O)[nH]1 [Acyclovir, acyclovir, reference compound]	> 450	0.82 (≈ 3.64 µM)	0.74 (≈ 3.29 µM)				EC50 [4]: 14 µg/mL (≈ 62.3 µM)
O=c1c(O[C@@H]2O[C@H](CO)[C@@H](O)[C@H](O)[C@H]2O)c(-c2ccc(O)c(O)c2)oc2cc(O)cc(O)c12 [Isoquercitrin, isoquercitrin]	> 200	0.39 (≈ 0.84 µM)	0.42 (≈ 0.904 µM)	not	not	>476.2	HSV-induced NF-κB translocation / activation (NF-κB): inhibited NF-κB activation

From publication PMC4314066, “Houttuynia cordata Targets the Beginning Stage of Herpes Simplex Virus Infection” (PLoS ONE, 2015)
